Our source for the IC50 values is patent publication US20070275960A1, “Phenyl and pyridyl compounds for inflammation and immune-related uses” (Synta Pharmaceuticals Corp., priority 2006, published 2007).

One assay concerns IL-2 production. Description: Inhibition of IL-2 production in PHA-activated Jurkat cells (ELISA). Format: cell-based. Conditions: Homo sapiens, Jurkat, 20 h, PHA 2.5 μg/mL, 20 hours at 37° C., IL-2 by ELISA. As for the experimental part:
Jurkat cells were placed in a 96 well plate (0.5 million cells per well in 1% FBS medium) then a test compound of this invention was added at different concentrations. After 10 minutes, the cells were activated with PHA (final concentration 2.5 μg/mL) and incubated for 20 hours at 37° C. under CO2. The final volume was 200 μL. Following incubation, the cells were centrifuged and the supernatants collected and stored at −70° C. prior to assaying for IL-2 production. A commercial ELISA kit (IL-2 Eli-pair, Diaclone Research, Besancon, France) was used to detect production of IL-2, from which dose response curves were obtained. The IC50 value was calculated as the concentration at which 50% of maximum IL-2 production after stimulation was inhibited versus a non-stimulation control.
For `Cc1cnccc1C(=O)Nc1ccc(-c2sc(-c3cnco3)cc2Cl)cc1` [Compound 112, 3-Methyl-N-[4-(3-chloro-5-oxazol-5-yl-thiophen-2-yl)-phenyl]-isonicotinamide], the IC50 came to 6.7 nM.
For `Cc1cnccc1C(=O)Nc1ccc(-c2sc(-c3ccno3)cc2Cl)cc1` [Compound 113, 3-Methyl-N-[4-(3-chloro-5-isoxazol-5-yl-thiophen-2-yl)-phenyl]-isonicotinamide], the IC50 stood at 10 nM.
`O=C(Nc1ccc(-c2sc(-c3ccno3)cc2Cl)cc1)c1ccncc1F` [Compound 114, 3-Fluoro-N-[4-(3-chloro-5-isoxazol-5-yl-thiophen-2-yl)-phenyl]-isonicotinamide] gave an IC50 of 11 nM.
Same read-out and setting: the figure for `Cc1cncnc1C(=O)Nc1ccc(-c2sc(-c3cnco3)cc2C)cc1` [Compound 115, 5-Methyl-pyrimidine-4-carboxylic acid [4-(3-methyl-5-oxazol-5-yl-thiophen-2-yl)-phenyl]-amide] is 9.6 nM.
The same measure, in the same setting: the figure for `Cc1cc(-c2cnco2)sc1-c1ccc(NC(=O)c2cccn2C)cc1` [Compound 116, 1-Methyl-1H-pyrrol-2-carboxylic acid [4-(3-methyl-5-oxazol-5-yl-thiophen-2-yl)-phenyl]-amide] is 4.8 nM; for `Cc1cc[nH]c1C(=O)Nc1ccc(-c2sc(-c3ccno3)cc2C)cc1` [Compound 117, 3-Methyl-1H-pyrrol-2-carboxylic acid [4-(3-methyl-5-isoxazol-5-yl-thiophen-2-yl)-phenyl]-amide] it is 48.8 nM.
The same measure, in the same setting: to `Cc1ncsc1-c1ccc(NC(=O)c2c(F)cccc2F)cc1` [Compound 120, 2,6-Difluoro-N-[4-(4-methyl-thiazole-5-yl)-phenyl]-benzamide] belongs over 1000 nM; to `COC(=O)c1nc(C)c(-c2ccc(NC(=O)c3c(F)cccc3F)cc2)s1` [Compound 121, 2,6-Difluoro-N-[4-(4-methyl-2-methoxycarbonyl-thiazol-5-yl)-phenyl]-benzamide], 133 nM.
In turn, `Cc1sc(-c2ncco2)cc1-c1ccc(NC(=O)c2c(F)cccc2F)cc1` [Compound 122, 2,6-Difluoro-N-[4-(2-methyl-5-oxazol-2yl-thiophen-3-yl)-phenyl]-benzamide] came in with an IC50 of 1.9 nM.
With `CCOC(=O)c1nc(-c2ccc(NC(=O)c3c(F)cccc3F)cc2)c(C)s1` [Compound 123, 2,6-Difluoro-N-[4-(5-methyl-2-ethoxycarbonyl-thiazol-4-yl)-phenyl]-benzamide], it took 123 nM to reach half-maximal inhibition (IC50).
`Cc1cnccc1C(=O)Nc1ccc(-c2cc(-c3ncco3)sc2C)cc1` [Compound 124, 3-Methyl-N-[4-(2-methyl-5-oxazol-2-yl-thiophen-3-yl)-phenyl]-isonicotinamide] had an IC50 of 8.6 nM.
In turn, `Cc1cc(-c2ccno2)sc1-c1ccc(NC(=O)Nc2c(F)cccc2F)cc1` [Compound 125, 1-(2,6-difluoro-phenyl)-3-[4-(5-isoxazol-5-yl-3-methyl-thiophen-2-yl)-phenyl]-urea] registered an IC50 of 2.5 nM.
Still for that read-out and setting: the figure for `Cc1cc(-c2cnco2)sc1-c1ccc(NC(=O)Nc2c(F)cccc2F)cc1` [Compound 126, 1-(2,6-difluoro-phenyl)-3-[4-(5-oxazol-5-yl-3-methyl-thiophen-2-yl)-phenyl]-urea] is 2.4 nM; for `Cc1cc(-c2cnco2)sc1-c1ccc(NC(=O)Nc2ccncc2F)cc1` [Compound 127, 1-(3-fluoro-pyridin-4-yl)-3-[4-(5-oxazol-5-yl-3-methyl-thiophen-2-yl)-phenyl]-urea] it is 41 nM; for `Cc1cc(-c2ccno2)sc1-c1ccc(NCc2ccncc2F)cc1` [Compound 128, (3-Fluoro-pyridin-4-ylmethyl)-[4-(5-isoxazol-5-yl-3-methyl-thiophen-2-yl)-phenyl]-amine] it is 19 nM.
In turn, `Cc1cc(-c2cnco2)sc1-c1ccc(NCc2ccncc2F)cc1` [Compound 129, (3-Fluoro-pyridin-4-ylmethyl)-[4-(5-oxazol-5-yl-3-methyl-thiophen-2-yl)-phenyl]-amine] returned an IC50 of 74.4 nM.

The assay is the same for the next values; noted with them: PHA 2.5 μg/mL, 20 hours at 37° C., IL-2 by ELISA.
In turn, `Cc1cc(-c2ccncc2)sc1-c1ccc(NC(=O)c2snnc2C)cc1` [Compound 118, 4-Methyl-[1,2,3]thiadiazole-5-carboxylic acid [4-(3-methyl-5-pyridin-4-yl-thiophen-2-yl)-phenyl]-amide] showed an IC50 of 6.1 nM.
Still for that read-out and setting: to `Cc1cc(-c2ccccn2)sc1-c1ccc(NC(=O)c2snnc2C)cc1` [Compound 119, 4-Methyl-[1,2,3]thiadiazole-5-carboxylic acid [4-(3-methyl-5-pyridin-2-yl-thiophen-2-yl)-phenyl]-amide] belongs 4.8 nM.
